# Experiments:
# S1P3 = biological target: T1, S1P3 (Homo sapiens, UniProt Q99500); experiment: S1P3 antagonist test, S1P3 NFAT-bla CHO cells; assay type: cell-based; conditions: S1P3 NFAT-BLA CHO cell line
# T1 construct: expressed in transfected cells; host or cells: S1P3 NFAT-bla CHO cells
# Experimental: Since AD2900 is a sphingolipid analogue with properties that resemble those of S1P, we intended to examine its ability to interact with the S1P receptors. To delineate whether AD2900 can function as an agonistic or antagonistic compound to any of the S1P receptors, we used a high-throughput screening cell-based assay, employing cell lines stably transfected with human S1P receptors 1, 2, 3, 4, or 5 [37]. In this experiment, a compound with an IC50 or EC50 value ≤10 μM for a certain S1P receptor is considered active as an antagonist or an agonist, respectively. The results illustrate that AD2900 acts as an antagonist to all S1P receptors (Table 1, Supplementary Figure 3). […] No agonist activation was evident.
# The S1P1 agonist test and S1P2, S1P3, S1P4, and S1P5 agonist and antagonist tests were conducted as previously described using S1P1 CRE-bla CHO cells, S1P2 CRE-bla CHO cells, S1P3 NFAT-bla CHO cells, Tango™ S1P4 (EDG6)-bla U-2 OS cells, and Tango™ S1P5 ([…])-bla U-2 OS cells. The S1P1 antagonist assay was carried out according to the manufacturer’s instructions using a Tango™ S1P1 (EDG1)-bla U-2 OS Cell-Based Assay (Invitrogen, NY, USA).
# C57BL/6 mice = experiment: T-cell subpopulations (naive, Tcm-like, Tef/em-like) in blood, spleen and lymph nodes, FACS; assay type: in vivo, mouse
# Experimental: We have shown that AD2900 has a unique effect on T-cell distribution in mice. Since T-cell subpopulations such as naïve T cells, central memory T cells (Tcm), and effector/effector memory T cells (Tef/em) have designated roles in the immune response, the influence of AD2900 on the localization of these subpopulations was investigated. The analysis of T-cell subpopulations was performed by FACS using antibodies against commonly accepted surface markers. Some of the molecules that we used as markers are involved in T-cell migration, and their expression can be affected by our treatment. […] Therefore, we refer to the CCR7-CD44+ T-cell population as Tef/em-like cells and to the CCR7+ CD44+ (Figure 6) or CD44+ CD62L+ (Supplementary Figure 4B) T-cell population as Tcm-like cells. The calculated cell number of the different subpopulations in control mice is shown in the left panel of Figure 6.
# Figure 6 AD2900 treatment influences the distribution of mice T-cell populations in the blood, spleen, and peripheral lymph nodes C57BL/6 mice were orally administered with AD2900 or FTY720, as shown in Figure 4. Leukocytes from blood, spleen, and pLNs were collected and stained with TCR-β, CD44, and CCR7 fluorescent antibodies and then analyzed by FACS analysis. The percentages of CCR7+ CD44+ Tcm-like cells (left panel), CCR7-CD44+ Tef/em-like cells (central panel), and CCR7 + CD44-naive T cells (right panel) of the total T-cell population (TCR-β+) in blood (A), spleen (B), and pLNs (C) are shown. All the significances are compared to untreated healthy mice. Results summarize three independent experiments. Results of Student’s t-test:*(P < 0.05, two-tailed test), ** (P < 0.01, two-tailed test), *** (P < 0.001, two-tailed test), **** (P < 0.0001, two-tailed test).
# Murine lymphocytes: The phenotype of murine lymphocytes was analyzed by flow cytometry using anti-CD3e-FITC, anti-CD19-PB, anti-CCR7-APC, anti-CD44-FITC, anti-CD62L-APC, and anti-TCR-β-PB (Biolegend, CA, USA).
# C57BL/6 female mice aged 7–8 weeks were obtained from Harlan Laboratories (Jerusalem, Israel). The animal study was conducted under appropriate conditions and was approved by the Institutional Animal Care and Use Committee of the Hebrew University of Jerusalem in accordance with the national laws and regulations for the protection of animals. AD2900 was dissolved in 10% BSA (MP Biomedicals, CA, USA) in DDW at 1 mg/ml and then further diluted in 200 ml water to get final concentrations at 1.8, 2.7, or 3.6 mg/l. AD2900 and FTY720 were supplied ad libitum to the mice for 2 days or 7 days. At the end of the experiment, blood was collected, and the mice were sacrificed and tissues (lymph nodes and spleen) were harvested.
# [1] = oral, as in Figure 4, % of total T cells
# T1 sequence (Q99500 whole entry): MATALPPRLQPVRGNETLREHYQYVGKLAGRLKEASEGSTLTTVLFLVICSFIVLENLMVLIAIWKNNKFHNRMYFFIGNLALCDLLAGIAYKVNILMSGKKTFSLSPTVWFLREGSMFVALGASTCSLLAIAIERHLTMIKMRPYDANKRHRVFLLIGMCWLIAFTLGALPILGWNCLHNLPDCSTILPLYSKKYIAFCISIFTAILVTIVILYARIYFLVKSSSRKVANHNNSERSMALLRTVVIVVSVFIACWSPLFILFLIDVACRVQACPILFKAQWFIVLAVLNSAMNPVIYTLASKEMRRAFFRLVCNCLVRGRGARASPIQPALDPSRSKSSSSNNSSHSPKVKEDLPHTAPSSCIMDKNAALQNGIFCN
compound,measurement,setting,value
CCCCCCCCCCCCCCCCNC(CO)(CO)CO [AD2900],IC50,S1P3,6.2 µM
same,Tcm-like cells in the blood and lymph nodes,C57BL/6 mice; compared to control,significantly downregulated
same,percentage of Tcm-like cells in the spleen,C57BL/6 mice; compared to control,significantly upregulated
same,percentage of naïve T-cell population among all T cells in the lymph nodes,C57BL/6 mice; compared with the untreated condition,remained the same
same,upregulation of the percentage of Tef/em-like cells in the blood,"C57BL/6 mice; oral, as in Figure 4",48% ± 1%
same,"naïve T cells (CCR7+CD44-) reduced, mean of up to, of that in the control, in the blood",C57BL/6 mice; [1],32% ± 6%
same,"naïve T cells (CCR7+CD44-) reduced, of that in the control, in the spleen",C57BL/6 mice; [1],38% ± 12%

# Source: article PMC5581131, “The novel sphingosine-1-phosphate receptors antagonist AD2900 affects lymphocyte activation and inhibits T-cell entry into the lymph nodes” (Oncotarget, 2017)
